This is an account of results in patent publication US20110262477A1 (priority 2008, published 2011).

For series [1], the system named is secreted 5′-nucleotidases from trophozoites of Trichomonas gallinae. Particulars: Borges et al., 2007; cited from earlier work.
The target of series [2] is T1, 5′-ecto nucleotidase (human homologue of bacterial AdsA) (Homo sapiens, UniProt P21589).
T1 sequence (P21589 27-549): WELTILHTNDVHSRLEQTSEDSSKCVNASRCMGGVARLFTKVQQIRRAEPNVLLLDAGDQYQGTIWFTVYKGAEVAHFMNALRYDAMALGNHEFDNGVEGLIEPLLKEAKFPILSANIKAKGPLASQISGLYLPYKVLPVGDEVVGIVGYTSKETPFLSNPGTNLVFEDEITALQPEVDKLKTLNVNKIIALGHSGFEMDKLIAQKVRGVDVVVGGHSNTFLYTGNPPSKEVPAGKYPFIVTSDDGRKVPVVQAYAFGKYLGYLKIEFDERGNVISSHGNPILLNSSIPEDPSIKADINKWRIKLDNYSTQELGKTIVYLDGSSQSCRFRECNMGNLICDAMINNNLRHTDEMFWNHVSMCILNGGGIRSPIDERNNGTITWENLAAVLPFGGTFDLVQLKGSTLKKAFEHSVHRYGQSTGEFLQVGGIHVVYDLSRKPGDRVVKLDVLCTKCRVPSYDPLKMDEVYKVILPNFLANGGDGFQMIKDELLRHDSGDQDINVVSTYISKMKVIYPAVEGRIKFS
Particulars: cited from earlier work.

The next series concerns AdsA. The format is biochemical, S. aureus.
In series [3] the test system is adsA mutant staphylococci. The series is described as follows: Survival of adsA staphylococci in rat blood with added adenosine (FIG. 17F). Particulars: addition of 1-100 μM adenosine. The format is cell-based, S. aureus.
The subject of another series is S. aureus. Particulars: individual subunit vaccine antigens; none afforded complete protection; cited from earlier work.
Series [4] deals with Nc1ncnc2c1ncn2[C@@H]1O[C@H](COP(=O)(O)O)[C@@H](O)[C@H]1O. Briefly: purified protein, by the assay type. Particulars: pH 7.5; 37.0 °C.
The test system of series [5] is 5′-nucleotidases from snake venom. Particulars: Uchino et al., 1986; cited from earlier work.
Series [6] deals with T2, 5′-nucleotidases from rat liver membrane (Rattus norvegicus, UniProt P21588).
T2 sequence (P21588 29-551): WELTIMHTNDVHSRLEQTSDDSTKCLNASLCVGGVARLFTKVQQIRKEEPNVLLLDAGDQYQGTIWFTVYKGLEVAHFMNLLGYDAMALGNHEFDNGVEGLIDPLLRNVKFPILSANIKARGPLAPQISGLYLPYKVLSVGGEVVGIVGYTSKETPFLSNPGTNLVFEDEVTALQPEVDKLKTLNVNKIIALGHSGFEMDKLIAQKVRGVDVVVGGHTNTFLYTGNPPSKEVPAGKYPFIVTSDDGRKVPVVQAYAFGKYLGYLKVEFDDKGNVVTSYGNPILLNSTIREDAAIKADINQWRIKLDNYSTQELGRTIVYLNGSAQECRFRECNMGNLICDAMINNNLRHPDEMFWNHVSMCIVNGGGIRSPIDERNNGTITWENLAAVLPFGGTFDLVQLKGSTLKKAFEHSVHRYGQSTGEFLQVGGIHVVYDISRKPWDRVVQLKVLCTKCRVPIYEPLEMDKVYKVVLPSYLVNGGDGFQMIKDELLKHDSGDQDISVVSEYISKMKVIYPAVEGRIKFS
Particulars: Uchino et al., 1986; cited from earlier work.

For the next series, the system named is S. aureus Newman. Briefly: Eap, Emp vaccination, murine renal abscess model (FIG. 5). Particulars: for histological lesions: kidneys of immunized mice, PBS mock 4/5, FIG. 5E.

Consider `Nc1ncnc2c1ncn2[C@@H]1O[C@H](COP(=O)(O)CP(=O)(O)O)[C@@H](O)[C@H]1O` [AOPCP, α,β-methylene adenosine 5′-diphosphate], for which the “inhibition of secreted 5′-nucleotidases” value in series [1] is listed as “does not inhibit”. In addition, the “inhibition of 5′-ecto nucleotidase” value in series [2] was “inhibitor”.

As for `O=S(=O)([O-])[O-].[Cu+2]` [CuSO4], the “inhibition of adenosine synthase activity” value with AdsA is reported as “completely inhibited”.

For the molecule `[Cl-].[Cl-].[Zn+2]` [ZnCl2], the “inhibition of adenosine synthase activity” value with AdsA is “completely inhibited”.

For the molecule `Nc1ncnc2c1ncn2[C@@H]1O[C@H](CO)[C@@H](O)[C@H]1O` [adenosine], the “survival of adsA mutant staphylococci in blood” value in series [3] is listed as “dose-dependent increase in the survival”.

For the molecule “IsdB: purified S. aureus sortase A substrate surface protein used as subunit vaccine antigen”, the “reduction in bacterial load” value in the series on S. aureus is listed as “significant reduction in bacterial load”.

For the molecule “SdrD: purified S. aureus sortase A substrate surface protein used as subunit vaccine antigen”, in the series on S. aureus, the “reduction in bacterial load” value is recorded as “significant reduction in bacterial load”.

Regarding “SdrE: purified S. aureus sortase A substrate surface protein used as subunit vaccine antigen”, the “reduction in bacterial load” value in the series on S. aureus is on record as “significant reduction in bacterial load”.

The term Km denotes the substrate concentration at which the rate is half of its maximum. As for “Staphylococcus aureus adenosine synthase A (AdsA, SasH), purified soluble recombinant form AdsA1-400 (from GST-AdsA expressed in Escherichia coli), SEQ ID NO:36 (Staphylococcus aureus subsp. aureus NCTC 8325)”, the Km in [4] came to 44 nM.

For melanocidins A and B, the “inhibitory activity against 5′-nucleotidases” value in [5] and in series [6] was “potent inhibitory activity” throughout.

With nucleoticidin, the “inhibitory activity against 5′-nucleotidases” value in [5] and in series [6] was “potent inhibitory activity” throughout.

B1: Eap: recombinant His-tagged staphylococcal envelope associated protein Eap (SEQ ID NO:4) purified from E. coli, vaccine antigen (protein, listed as Staphylococcus aureus)
chain: MKFKSLITTTLALGVLASTGANFNNNEASAAAKPLDKSSSSLHHGYSKVHVPYAITVNGTSQNILSSLTFNKNQNISYKDLEDRVKSVLKSDRGISDIDLRLSKQAKYTVYFKNGTKKVIDLKAGIYTADLINTSEIKAININVDTKKQVEDKKKDKANYQVPYTITVNGTSQNILSNLTFNKNQNISYKDLEDKVKSVLESNRGITDVDLRLSKQAKYTVNFKNGTKKVIDLKSGIYTANLINSSDIKSININVDTKKHIENKAKRNYQVPYSINLNGTSTNILSNLSFSNKPWTNYKNLTSQIKSVLKHDRGISEQDLKYAKKAYYTVYFKNGGKRILQLNSKNYTANLVHAKDVKRIEITVKTGTKAKADRYVPYTIAVNGTSTPILSDLKFTGDPRVGYKDISKKVKSVLKHDRGIGERELKYAKKATYTVHFKNGTKKVININSNISQLNLLYVQDIKKIDIDVKTGTKAKADSYVPYTIAVNGTSTPILSKLKISNKQLISYKYLNDKVKSVLKSERGISDLDLKFAKQAKYTVYFKNGKKQVVNLKSDIFTPNLFSAKDIKKIDIDVKQYTKSKKNK
modifications: His-tag
As to B1, in the series with S. aureus Newman, the histological lesions was 1/5.

B2: IsdA: purified S. aureus sortase A substrate surface protein used as subunit vaccine antigen (protein, listed as Staphylococcus sp.)
chain: MTKHYLNSKYQSEQRSSAMKKITMGTASIILGSLVYIGADSQQVNAATEATNATNNQSTQVSQATSQPINFQVQKDGSSEKSHMDDYMQHPGKVIKQNNKYYFQTVLNNASFWKEYKFYNANNQELATTVVNDNKKADTRTINVAVEPGYKSLTTKVHIVVPQINYNHRYTTHLEFEKAIPTLADAAKPNNVKPVQPKPAQPKTPTEQTKPVQPKVEKVKPTVTTTSKVEDNHSTKVVSTDTTKDQTKTQTAHTVKTAQTAQEQNKVQTPVKDVATAKSESNNQAVSDNKSQQTNKVTKHNETPKQASKAKELPKTGLTSVDNFISTVAFATLALLGSLSLLLFKRKESK
As to B2, the “reduction in bacterial load” value in the series on S. aureus is on record as “significant reduction in bacterial load”.

B3: Emp: recombinant His-tagged staphylococcal envelope associated protein Emp (SEQ ID NO:2) purified from E. coli, vaccine antigen (protein, listed as Staphylococcus aureus)
chain: MKKKLLVLTMSTLFATQIMNSNHAKASVTESVDKKFVVPESGINKIIPAYDEFKNSPKVNVSNLTDNKNFVASEDKLNKIADSSAASKIVDKNFVVPESKLGNIVPEYKEINNRVNVATNNPASQQVDKHFVAKGPEVNRFITQNKVNHHFITTQTHYKKVITSYKSTHVHKHVNHAKDSINKHFIVKPSESPRYTHPSQSLIIKHHFAVPGYHAHKFVTPGHASIKINHFCVVPQINSFKVIPPYGHNSHRMHVPSFQNNTTATHQNAKVNKAYDYKYFYSYKVVKGVKKYFSFSQSNGYKIGKPSLNIKNVNYQYAVPSYSPTHYVPEFKGSLPAPRV
modifications: His-tag
In the case of B3, in the series with S. aureus Newman (ELISA IgG titers from vaccinated mice, FIG. 5D), the “titers of reactive IgG” value was > 64,000. Besides, the histological lesions in the series on S. aureus Newman was 1/5.
